Reference: ChEMBL document CHEMBL1759853, “Imidazo[1,5-a]pyrazines: orally efficacious inhibitors of mTORC1 and mTORC2” (Bioorg Med Chem Lett, 2011)
One block for each compound: values may come before it. The source made the active and inactive calls. The rule behind the calls is not given here.

How the values were obtained:
[1] = cells; conditions: Homo sapiens, HeLa
[2] = in vitro; conditions: human, liver microsomes
Description: Metabolic stability in human liver microsome assessed as extraction ratio

[3] = Metabolic stability in mouse liver microsome assessed as extraction ratio; type: ADME; conditions: liver microsomes
[4] = Clearance in mouse at 5 mg/kg, iv; type: ADME, organism-based; design: dose 5 mg/kg, route intravenous; conditions: in vivo
[5] = Inhibition of mTORC2 dependent pAkT S473 phosphorylation in human BT-20 cells; type: cell-based
[6] = Volume of distribution at steady-state in mouse at 5 mg/kg, iv; type: ADME, organism-based; design: dose 5 mg/kg, route intravenous; conditions: in vivo, read-out: Vdss
[7] = Cmax in mouse at 20 mg/kg, po; type: ADME, organism-based; design: dose 20 mg/kg, route oral; conditions: in vivo
[8] = Bioavailability in mouse at 20 mg/kg, po; type: ADME, organism-based; conditions: in vivo
[9] = tested on: Mus musculus; assay: Toxicity in CD-1 mouse xenografted with human MDA-MB-231 cells assessed as reduction in body weight at 100 mg/kg, po QD for 14 days; type: organism-based; design: dose 100 mg/kg, route oral; conditions: in vivo, 336 h
[10] = tested on: Mus musculus; assay: […] mouse bearing human MDA-MB-231 cells assessed as inhibition of 4E-BP1 T37/46 phosphorylation at 100 mg/kg, po after 8 hrs; type: functional, organism-based; design: dose 100 mg/kg
[11] = AUC (0 to infinity) in mouse at 20 mg/kg, po; type: ADME, organism-based; design: time infinity, dose 20 mg/kg, route oral; conditions: plasma
[12] = Inhibition of mTORC2 dependent P4E-BP1 T37/46 phosphorylation in human MDA-MB-231 cells; type: cell-based
[13] = AUC (0 to infinity) in mouse at 5 mg/kg, iv; type: ADME, organism-based; design: dose 5 mg/kg, route intravenous, time infinity; conditions: plasma
[14] = Plasma protein binding in mouse; type: ADME, cell-free; conditions: read-out: PPB (converted)
[15] = tested on: MDA-MB-231; assay: Antitumor activity against human MDA-MB-231 cells xenografted in CD-1 mouse at 100 mg/kg, po QD for 14 days; type: functional
[16] = target: Dual specificity mitogen-activated protein kinase kinase 1 (Homo sapiens, UniProt Q02750); assay: Inhibition of MEK1
[17] = target: T1, Insulin-like growth factor 1 receptor (Homo sapiens, UniProt P08069); assay: Inhibition of IGF-1R
[18] = Permeability of the compound by PAMPA method; type: ADME; conditions: read-out: permeability
[19] = target: RAF proto-oncogene serine/threonine-protein kinase (Homo sapiens, UniProt P04049); assay: Inhibition of cRaf
[20] = target: Vascular endothelial growth factor receptor 2 (Homo sapiens, UniProt P35968); assay: Inhibition of KDR
[21] = target: Insulin receptor (Homo sapiens, UniProt P06213); assay: Inhibition of IR
[22] = tested on: Mus musculus; assay: […] mouse bearing human MDA-MB-231 cells assessed as inhibition of 4E-BP1 T37/46 phosphorylation at 100 mg/kg, po after 4 hrs; type: functional, organism-based; design: dose 100 mg/kg
[23] = Aqueous solubility of the compound at pH 7.4; type: physicochemical
[24] = Half life in mouse at 5 mg/kg, iv; type: ADME, organism-based; design: dose 5 mg/kg, route intravenous; conditions: in vivo
[25] = tested on: MDA-MB-231; assay: Antiproliferative activity against human MDA-MB-231 cells; type: functional, cell-based
[26] = target: Tyrosine-protein kinase ABL1 (Homo sapiens, UniProt P00519); assay: Inhibition of Abl
[27] = target: Proto-oncogene tyrosine-protein kinase Src (Homo sapiens, UniProt P12931); assay: Inhibition of Src
[28] = target: T2, 3-phosphoinositide-dependent protein kinase 1 (Homo sapiens, UniProt O15530); assay: Inhibition of PDK1
T2 sequence (O15530 whole entry): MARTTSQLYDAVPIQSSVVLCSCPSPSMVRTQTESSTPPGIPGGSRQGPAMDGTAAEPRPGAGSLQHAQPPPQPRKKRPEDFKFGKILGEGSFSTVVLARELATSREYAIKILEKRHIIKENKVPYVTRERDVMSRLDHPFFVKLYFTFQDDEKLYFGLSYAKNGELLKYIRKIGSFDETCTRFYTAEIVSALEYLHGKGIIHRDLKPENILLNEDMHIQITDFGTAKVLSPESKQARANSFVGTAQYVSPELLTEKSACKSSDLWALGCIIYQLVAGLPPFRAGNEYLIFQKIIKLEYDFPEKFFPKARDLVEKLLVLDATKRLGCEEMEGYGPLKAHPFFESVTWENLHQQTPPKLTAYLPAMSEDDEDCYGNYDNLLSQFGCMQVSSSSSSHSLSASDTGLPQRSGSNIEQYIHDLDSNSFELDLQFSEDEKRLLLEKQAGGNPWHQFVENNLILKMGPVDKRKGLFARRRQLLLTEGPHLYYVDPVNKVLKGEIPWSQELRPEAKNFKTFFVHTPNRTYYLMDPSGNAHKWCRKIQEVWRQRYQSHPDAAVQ

[29] = target: Epidermal growth factor receptor (Homo sapiens, UniProt P00533)
[30] = target: Phosphatidylinositol 4,5-bisphosphate 3-kinase catalytic subunit gamma isoform (Homo sapiens, UniProt P48736); assay: Inhibition of PI3Kgamma
[31] = AUC (0 to infinity) in mouse at 1 mg/kg, iv; type: ADME, organism-based; design: time infinity, dose 1 mg/kg, route intravenous; conditions: plasma
[32] = Clearance in mouse at 1 mg/kg, iv; type: ADME, organism-based; design: dose 1 mg/kg, route intravenous; conditions: in vivo
[33] = Half life in mouse at 1 mg/kg, iv; type: ADME, organism-based; design: dose 1 mg/kg, route intravenous; conditions: in vivo
[34] = Volume of distribution at steady-state in mouse at 1 mg/kg, iv; type: ADME, organism-based; design: dose 1 mg/kg, route intravenous; conditions: in vivo, read-out: Vdss
[35] = target: T1, Insulin-like growth factor 1 receptor; assay: Inhibition of IGF-1R by ELISA
[36] = tested on: MDA-MB-231; assay: Inhibition of mTORC2 dependent P4E-BP1 T37/46 phosphorylation in human MDA-MB-231 cells at 20 uM; type: cell-based
[37] = tested on: BT-20; assay: Inhibition of mTORC2 dependent pAkT S473 phosphorylation in human BT-20 cells at 20 uM; type: cell-based

T1 sequence (P08069 31-736 limits assumed): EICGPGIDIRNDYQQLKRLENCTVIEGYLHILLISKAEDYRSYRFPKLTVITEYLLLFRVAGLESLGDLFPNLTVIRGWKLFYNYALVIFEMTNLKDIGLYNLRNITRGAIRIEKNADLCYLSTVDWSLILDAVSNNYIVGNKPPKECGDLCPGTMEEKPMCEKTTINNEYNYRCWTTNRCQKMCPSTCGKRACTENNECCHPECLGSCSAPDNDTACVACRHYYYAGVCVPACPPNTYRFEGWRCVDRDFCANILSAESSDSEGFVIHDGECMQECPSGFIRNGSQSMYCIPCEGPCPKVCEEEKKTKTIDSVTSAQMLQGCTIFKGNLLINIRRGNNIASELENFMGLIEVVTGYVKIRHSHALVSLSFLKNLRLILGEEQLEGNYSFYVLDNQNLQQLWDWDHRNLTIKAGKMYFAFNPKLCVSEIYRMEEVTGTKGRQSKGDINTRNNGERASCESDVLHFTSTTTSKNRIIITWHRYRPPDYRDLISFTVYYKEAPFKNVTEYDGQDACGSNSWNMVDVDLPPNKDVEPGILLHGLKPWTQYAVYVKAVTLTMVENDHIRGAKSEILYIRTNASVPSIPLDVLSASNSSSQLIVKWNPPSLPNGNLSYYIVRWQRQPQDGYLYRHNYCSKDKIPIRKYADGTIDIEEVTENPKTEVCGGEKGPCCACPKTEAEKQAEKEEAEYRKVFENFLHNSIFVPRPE
T1 sequence (P08069 741-1367 limits assumed): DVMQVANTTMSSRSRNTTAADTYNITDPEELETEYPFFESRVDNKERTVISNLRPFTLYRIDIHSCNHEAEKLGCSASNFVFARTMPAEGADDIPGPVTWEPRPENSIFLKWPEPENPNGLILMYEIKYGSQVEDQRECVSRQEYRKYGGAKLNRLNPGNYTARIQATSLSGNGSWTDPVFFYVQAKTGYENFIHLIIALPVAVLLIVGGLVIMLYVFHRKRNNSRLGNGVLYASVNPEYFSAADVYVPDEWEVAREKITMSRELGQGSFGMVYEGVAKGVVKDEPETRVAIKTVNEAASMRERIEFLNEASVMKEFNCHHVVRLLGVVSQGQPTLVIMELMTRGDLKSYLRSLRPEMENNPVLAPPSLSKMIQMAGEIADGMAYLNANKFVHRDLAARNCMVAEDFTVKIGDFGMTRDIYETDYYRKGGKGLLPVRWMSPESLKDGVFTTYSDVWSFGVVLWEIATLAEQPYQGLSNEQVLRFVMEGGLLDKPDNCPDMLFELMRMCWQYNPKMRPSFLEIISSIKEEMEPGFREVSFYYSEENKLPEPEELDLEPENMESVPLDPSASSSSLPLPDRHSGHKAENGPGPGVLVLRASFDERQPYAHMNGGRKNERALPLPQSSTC
Chain of Dual specificity mitogen-activated protein kinase kinase 1 (Q02750 whole entry): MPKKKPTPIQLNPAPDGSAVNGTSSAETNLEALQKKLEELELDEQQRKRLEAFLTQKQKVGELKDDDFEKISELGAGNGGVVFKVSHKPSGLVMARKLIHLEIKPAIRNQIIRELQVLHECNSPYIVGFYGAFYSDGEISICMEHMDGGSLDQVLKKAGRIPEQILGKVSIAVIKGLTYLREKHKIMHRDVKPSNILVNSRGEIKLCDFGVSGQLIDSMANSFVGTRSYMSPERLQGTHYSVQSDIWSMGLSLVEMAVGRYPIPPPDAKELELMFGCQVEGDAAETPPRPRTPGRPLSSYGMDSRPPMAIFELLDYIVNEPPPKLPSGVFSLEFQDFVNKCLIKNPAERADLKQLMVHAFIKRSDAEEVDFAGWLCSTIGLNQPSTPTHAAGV
Chain of Phosphatidylinositol 4,5-bisphosphate 3-kinase catalytic subunit gamma isoform (P48736 whole entry, canonical isoform): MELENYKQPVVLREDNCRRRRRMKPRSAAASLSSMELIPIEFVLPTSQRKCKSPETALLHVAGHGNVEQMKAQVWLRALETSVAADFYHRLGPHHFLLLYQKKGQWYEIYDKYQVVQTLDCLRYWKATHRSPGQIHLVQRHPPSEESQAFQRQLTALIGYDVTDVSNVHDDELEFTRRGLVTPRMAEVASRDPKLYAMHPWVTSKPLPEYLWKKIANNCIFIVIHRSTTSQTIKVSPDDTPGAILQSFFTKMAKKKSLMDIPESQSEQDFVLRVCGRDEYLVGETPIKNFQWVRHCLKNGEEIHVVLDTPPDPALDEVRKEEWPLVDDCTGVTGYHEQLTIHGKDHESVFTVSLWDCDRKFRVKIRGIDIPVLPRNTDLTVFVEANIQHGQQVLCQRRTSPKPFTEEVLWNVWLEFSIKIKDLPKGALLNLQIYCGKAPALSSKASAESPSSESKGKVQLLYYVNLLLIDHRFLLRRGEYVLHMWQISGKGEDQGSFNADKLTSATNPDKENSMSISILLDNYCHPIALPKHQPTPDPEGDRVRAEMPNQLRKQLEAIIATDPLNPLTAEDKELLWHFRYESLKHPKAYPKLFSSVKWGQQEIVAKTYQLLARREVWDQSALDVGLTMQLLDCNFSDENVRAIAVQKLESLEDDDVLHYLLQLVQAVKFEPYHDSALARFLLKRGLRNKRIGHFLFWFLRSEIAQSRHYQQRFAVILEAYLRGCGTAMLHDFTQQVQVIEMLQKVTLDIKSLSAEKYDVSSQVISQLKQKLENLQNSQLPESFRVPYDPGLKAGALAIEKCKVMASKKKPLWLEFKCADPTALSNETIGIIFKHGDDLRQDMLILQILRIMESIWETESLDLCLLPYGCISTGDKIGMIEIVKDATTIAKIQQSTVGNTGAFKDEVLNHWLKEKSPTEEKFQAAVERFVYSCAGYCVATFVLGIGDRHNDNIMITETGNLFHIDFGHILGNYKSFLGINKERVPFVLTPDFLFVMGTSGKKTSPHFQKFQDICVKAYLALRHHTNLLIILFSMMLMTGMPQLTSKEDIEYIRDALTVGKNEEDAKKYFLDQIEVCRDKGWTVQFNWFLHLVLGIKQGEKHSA
Chain of Insulin receptor (P06213 28-758 limits assumed): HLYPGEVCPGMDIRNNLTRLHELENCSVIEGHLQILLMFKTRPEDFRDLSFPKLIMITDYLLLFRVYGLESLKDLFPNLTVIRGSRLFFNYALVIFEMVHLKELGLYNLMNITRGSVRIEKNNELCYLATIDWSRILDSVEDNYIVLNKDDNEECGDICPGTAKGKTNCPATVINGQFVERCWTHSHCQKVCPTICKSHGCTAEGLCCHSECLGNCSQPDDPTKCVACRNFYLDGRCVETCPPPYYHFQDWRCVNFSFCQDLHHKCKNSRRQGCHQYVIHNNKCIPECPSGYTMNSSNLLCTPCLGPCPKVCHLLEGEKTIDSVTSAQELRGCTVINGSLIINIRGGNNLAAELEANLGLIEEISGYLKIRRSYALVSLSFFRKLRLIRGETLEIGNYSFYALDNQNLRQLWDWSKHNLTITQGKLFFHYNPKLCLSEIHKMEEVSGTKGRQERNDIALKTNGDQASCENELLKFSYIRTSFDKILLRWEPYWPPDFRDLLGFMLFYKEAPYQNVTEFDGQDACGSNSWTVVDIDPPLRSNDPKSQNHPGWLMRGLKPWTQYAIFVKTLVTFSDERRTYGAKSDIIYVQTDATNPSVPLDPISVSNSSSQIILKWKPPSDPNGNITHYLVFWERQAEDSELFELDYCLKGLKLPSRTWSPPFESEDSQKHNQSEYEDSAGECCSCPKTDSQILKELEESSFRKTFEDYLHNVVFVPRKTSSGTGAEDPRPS
Chain of Insulin receptor (P06213 763-1382 limits assumed): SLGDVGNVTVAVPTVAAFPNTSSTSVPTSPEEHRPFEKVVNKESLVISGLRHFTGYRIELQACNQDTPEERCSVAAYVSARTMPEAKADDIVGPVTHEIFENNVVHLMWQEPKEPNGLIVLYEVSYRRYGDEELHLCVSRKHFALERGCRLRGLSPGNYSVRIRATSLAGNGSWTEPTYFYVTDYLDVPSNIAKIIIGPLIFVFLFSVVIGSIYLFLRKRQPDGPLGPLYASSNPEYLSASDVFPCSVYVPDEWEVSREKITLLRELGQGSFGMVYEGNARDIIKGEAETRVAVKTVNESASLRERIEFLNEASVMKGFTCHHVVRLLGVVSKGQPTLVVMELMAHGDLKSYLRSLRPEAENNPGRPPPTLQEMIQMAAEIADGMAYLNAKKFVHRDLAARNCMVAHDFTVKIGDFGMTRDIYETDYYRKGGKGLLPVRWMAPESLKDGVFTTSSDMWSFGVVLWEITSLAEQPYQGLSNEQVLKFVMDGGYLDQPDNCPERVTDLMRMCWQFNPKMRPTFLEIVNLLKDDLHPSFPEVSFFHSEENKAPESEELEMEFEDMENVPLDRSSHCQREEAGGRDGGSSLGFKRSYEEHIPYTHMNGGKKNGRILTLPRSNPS
Chain of Proto-oncogene tyrosine-protein kinase Src (P12931 2-536 limits assumed): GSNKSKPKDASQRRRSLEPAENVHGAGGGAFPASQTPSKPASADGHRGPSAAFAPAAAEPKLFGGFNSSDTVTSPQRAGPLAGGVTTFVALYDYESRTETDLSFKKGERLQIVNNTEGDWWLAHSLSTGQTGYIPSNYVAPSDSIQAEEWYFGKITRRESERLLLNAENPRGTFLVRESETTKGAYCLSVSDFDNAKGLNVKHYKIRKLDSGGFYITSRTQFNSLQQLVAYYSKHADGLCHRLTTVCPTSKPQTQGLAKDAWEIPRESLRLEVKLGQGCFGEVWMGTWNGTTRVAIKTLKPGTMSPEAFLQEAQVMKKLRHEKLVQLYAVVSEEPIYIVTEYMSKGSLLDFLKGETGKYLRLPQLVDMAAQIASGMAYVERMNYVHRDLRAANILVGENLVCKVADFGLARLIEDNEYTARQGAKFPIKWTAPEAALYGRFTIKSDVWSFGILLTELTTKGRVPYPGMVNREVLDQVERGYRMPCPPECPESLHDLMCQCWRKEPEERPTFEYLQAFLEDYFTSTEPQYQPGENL

SMILES: Nc1nccn2c(C3CCC3)nc(-c3cccc4ccccc34)c12
IC50 [1]: > 10000 nM

SMILES: Nc1nccn2c(C3CCC3)nc(-c3cnc4ccccc4c3)c12
IC50 [1]: 2350 nM

SMILES: CN1CCN(C(=O)N2CCC(c3nc(-c4cc5ccccc5[nH]4)c4c(N)nccn34)CC2)CC1
IC50 [1]: 1370 nM

SMILES: Nc1nccn2c(C3CCC3)nc(-c3ccc4ncccc4c3)c12
IC50 [1]: 7150 nM

SMILES: Nc1nccn2c(C3CCC3)nc(-c3ccc4cc[nH]c4c3)c12
IC50 [1]: 3120 nM

SMILES: CN1CCN([C@H]2C[C@@H](c3nc(-c4cc5ccccc5[nH]4)c4c(N)nccn43)C2)CC1
IC50 [1]: 4000 nM
hepatic extraction ratio [2]: 0.44
hepatic extraction ratio [3]: 0.2

SMILES: Nc1nccn2c(C3CCC3)nc(-c3ccc4ccc(-c5ccccc5)nc4c3)c12
IC50 [1]: > 9000 nM

SMILES: Nc1nccn2c(C3CCC3)nc(-c3ccc4[nH]ccc4c3)c12
IC50 [1]: 2480 nM

SMILES: Nc1nccn2c(C3CCNCC3)nc(-c3cc4ccccc4[nH]3)c12
IC50 [1]: > 10000 nM
hepatic extraction ratio [2]: 0.18
hepatic extraction ratio [3]: 0.64

SMILES: Nc1nccn2c(C3CCC3)nc(-c3ccc4occc4c3)c12
IC50 [1]: > 10000 nM

SMILES: Nc1nccn2c(C3CCC3)nc(-c3c[nH]c4ccccc34)c12
IC50 [1]: > 10000 nM

SMILES: Nc1nccn2c(C3CCC3)nc(-c3cccc(O)c3)c12
IC50 [1]: 1970 nM

SMILES: Nc1nccn2c(C3CCC3)nc(-c3ccc4ccccc4c3)c12
IC50 [1]: 1360 nM

SMILES: Nc1nccn2c(C3CCC3)nc(-c3ccc4sccc4c3)c12
IC50 [1]: 1300 nM

SMILES: CO[C@H]1C[C@@H]2CC[C@@H](C)[C@@](O)(O2)C(=O)C(=O)N2CCCC[C@H]2C(=O)O[C@H]([C@H](C)C[C@@H]2CC[C@@H](O)[C@H](OC)C2)CC(=O)[C@H](C)/C=C(\C)[C@@H](O)[C@@H](OC)C(=O)[C@H](C)C[C@H](C)/C=C/C=C/C=C/1C
inhibition [36]: 40%
inhibition [37]: inactive

SMILES: Nc1nccn2c(C3CCC3)nc(-c3ccc4nccnc4c3)c12
IC50 [1]: 2600 nM

The next lines start with results.

IC50 [1]: 130 nM
SMILES: Nc1nccn2c(C3CCC3)nc(-c3cc4ccccc4s3)c12

IC50 [1]: 1000 nM
hepatic extraction ratio [2]: 0.34
hepatic extraction ratio [3]: 0.28
SMILES: NC[C@H]1CC[C@H](c2nc(-c3cc4ccccc4[nH]3)c3c(N)nccn32)CC1

IC50 [1]: 90 nM
hepatic extraction ratio [2]: 0.78
hepatic extraction ratio [3]: 0.76
SMILES: Nc1nccn2c1c(-c1cc3ccccc3[nH]1)nc2[C@H]1CC[C@H](CNC(=O)c2ccoc2)CC1

clearance [4]: 7 mL/min/kg
IC50 [5]: 1380 nM
Vd [6]: 0.4 L/kg
Cmax [7]: 35.9 µM
bioavailability [8]: 102%
AUC(0-inf) [11]: 49400 ng·h/mL
IC50 [1]: 120 nM
IC50 [12]: 7800 nM
AUC(0-inf) [13]: 12100 ng·h/mL
fraction unbound [14]: 0.119
IC50 [16]: > 10000 nM
IC50 [17]: > 30000 nM
Papp [18]: > 25 ×10⁻⁶ cm/s
IC50 [19]: 1700 nM
IC50 [20]: > 10000 nM
IC50 [21]: > 30000 nM
hepatic extraction ratio [2]: 0.68
solubility [23]: > 100 µM
half-life [24]: 0.9 h
IC50 [25]: 9300 nM
IC50 [26]: > 10000 nM
IC50 [27]: 770 nM
hepatic extraction ratio [3]: 0.67
IC50 [28]: > 30000 nM
IC50 [29]: > 10000 nM
IC50 [30]: > 30000 nM
SMILES: CN(C)C(=O)N1CCC(c2nc(-c3cc4ccccc4[nH]3)c3c(N)nccn23)CC1
Activity [9]: Toxic
Activity [10]: Active
Activity [15]: 94%
Activity [22]: Active

IC50 [1]: 370 nM
hepatic extraction ratio [2]: 0.74
hepatic extraction ratio [3]: 0.6
SMILES: Nc1nccn2c1c(-c1cc3ccccc3[nH]1)nc2[C@H]1C[C@@H](O)C1

IC50 [1]: 170 nM
hepatic extraction ratio [2]: 0.74
hepatic extraction ratio [3]: 0.79
SMILES: Nc1nccn2c1c(-c1cc3ccccc3[nH]1)nc2[C@H]1CC[C@H](CNC(=O)C2CCC2)CC1

AUC(0-inf) [31]: 6880 ng·h/mL
IC50 [5]: 1260 nM
Cmax [7]: 30.6 µM
bioavailability [8]: 54%
AUC(0-inf) [11]: 73800 ng·h/mL
IC50 [1]: 210 nM
IC50 [12]: 7400 nM
fraction unbound [14]: 0.097
IC50 [16]: 960 nM
IC50 [17]: 2720 nM
clearance [32]: 2 mL/min/kg
Papp [18]: > 25 ×10⁻⁶ cm/s
IC50 [19]: 180 nM
IC50 [21]: 22600 nM
half-life [33]: 1.6 h
solubility [23]: > 100 µM
IC50 [25]: 7400 nM
IC50 [26]: 1960 nM
IC50 [27]: 5300 nM
IC50 [28]: 11200 nM
Vd [34]: 0.2 L/kg
IC50 [30]: > 30000 nM
SMILES: CC(=O)NC[C@H]1CC[C@H](c2nc(-c3cc4ccccc4[nH]3)c3c(N)nccn32)CC1
Activity [10]: Active
Activity [22]: Active

IC50 [1]: 400 nM
SMILES: Nc1nccn2c(C3CCC3)nc(-c3cc4cccnc4[nH]3)c12

IC50 [1]: 900 nM
IC50 [35]: > 10000 nM
SMILES: Nc1nccn2c(C3CCC3)nc(-c3ccc4cccnc4c3)c12

IC50 [1]: 460 nM
hepatic extraction ratio [2]: 0.92
hepatic extraction ratio [3]: 0.94
SMILES: Nc1nccn2c(C3CCC3)nc(-c3cc4ccccc4[nH]3)c12

IC50 [1]: 150 nM
hepatic extraction ratio [2]: 0.64
hepatic extraction ratio [3]: 0.51
SMILES: Nc1nccn2c1c(-c1cc3ccccc3[nH]1)nc2[C@H]1CC[C@H](CNC=O)CC1

IC50 [1]: 220 nM
hepatic extraction ratio [2]: 0.74
hepatic extraction ratio [3]: 0.67
SMILES: Nc1nccn2c1c(-c1cc3ccccc3[nH]1)nc2[C@H]1CC[C@H](CO)CC1

IC50 [1]: 260 nM
SMILES: Nc1nccn2c(C3CCC3)nc(-c3cc4ccccc4o3)c12

IC50 [1]: 690 nM
hepatic extraction ratio [2]: 0.44
hepatic extraction ratio [3]: 0.43
SMILES: CC(=O)N1CCC(c2nc(-c3cc4ccccc4[nH]3)c3c(N)nccn23)CC1

IC50 [1]: 410 nM
SMILES: CS(=O)(=O)NC[C@H]1CC[C@H](c2nc(-c3cc4ccccc4[nH]3)c3c(N)nccn32)CC1

IC50 [1]: 350 nM
hepatic extraction ratio [2]: 0.58
hepatic extraction ratio [3]: 0.59
SMILES: CC(=O)N1CCN([C@H]2C[C@@H](c3nc(-c4cc5ccccc5[nH]4)c4c(N)nccn43)C2)CC1

IC50 [1]: 320 nM
hepatic extraction ratio [2]: 0.7
hepatic extraction ratio [3]: 0.79
SMILES: Nc1nccn2c1c(-c1cc3ccccc3[nH]1)nc2[C@H]1C[C@@H](CO)C1
